Data reported in patent US20230047569A1, “PESTICIDAL COMPLEX COMPOSITIONS FOR SYNERGISTIC DELIVERY OF PESTICIDAL ACTIVE INGREDIENTS AND METHODS OF SELECTION THEREOF” (0903608 B.C. Ltd., priority 2019, published 2023).

Tests used:
Trichoplusia ni = assay: In-planta insecticidal efficacy on sprayed green cabbage plants (Abbott and Colby formulas); format: in vivo; settings: 6 days; for Survival Rate (%): Coragen […] (0.104 ppm chlorantraniliprole) and/or aliphatic acid 750 ppm, 10% isopropanol; for Observed Efficacy, W (%): Coragen […] and/or aliphatic acid 750 ppm, Abbott corrected vs 10% isopropanol control
Protocol: Water and 10% isopropanol were tested as control treatments.
Green cabbage plants (Brassica oleracea var. capitate, Danish Ballhead cultivar) were grown from seed (available from West Coast Seeds, Delta, BC, Canada) in potting soil for 4-6 weeks in a pest-free indoor growing environment. At between 4-6 weeks of age, each cabbage plant was sprayed with 20 mL of treatment solution using a pressurized CO2 sprayer from approximately 18 inches above the plant, and allowed to dry.
While for SF<1, antagonism is present and for SF=1, the efficacy of the compounds is merely additive.

[1] = Solubility / effective solubilized concentration in 10% DMSO/90% PDB by HPLC; settings: working stock: DMSO stock diluted 10-fold in PDB
Protocol: This solution was diluted 10-fold in potato dextrose broth (PDB) to give a concentration of 0.05 mg/mL in 10% DMSO/90% PDB.
Concentrated stock solutions were prepared by dissolving pesticidal active ingredient in 100% dimethylsulfoxide (DMSO), which were then diluted 10-fold in potato dextrose broth (PDB) to give a working stock solution, as described below: […]

Compound | Survival Rate (%) (Trichoplusia ni) | Observed Efficacy, W (%) (Trichoplusia ni) | effective solubilized concentration [1] [mg/mL]
CCC(N)C(=O)O (stereo not shown) [2-aminobutyric acid] | 58.50 | 8.59 | 
CO/C=C(/C(=O)OC)c1ccccc1Oc1cc(Oc2ccccc2C#N)ncn1 [Azoxystrobin, azoxystrobin] |  |  | 0.15
CCC(C)CCC(=O)O (stereo not shown) [4-methylhexanoic acid] | 62.50 | 2.34 | 
O=C(O)CCCCCCCCCO [10-hydroxydecanoic acid] | 40.50 | 36.72 | 
